Reference: article PMC11116414, “Impact of secretin receptor homo-dimerization on natural ligand binding” (Nature Communications, 2024)
No end group written: not given here.

System: cysteine-containing SecR(G264A,I268A) constructs
Test: Cysteine trapping with SecR(G264A,I268A) cysteine constructs, intact COS-1 cells
Type: binding, human
Conditions: for Intraloop labeling / Overall labeling: mean ± S.E.M.
Description: In short, 15 µg of each peptide were incubated with 1 mCi of Na^125I for 15 s in borate buffer (pH 9.0) using solid-state N-chlorobenzene sulfonamide (iodination beads), and radioactive peptide products were separated and purified using reversed-phase HPLC, to yield a mono-iodinated peak with a specific radioactivity of 2000 Ci/mmol.
Modified secretin receptor constructs were prepared by mutagenesis of human SecR(G264A,I268A) by introducing cysteine residues to replace each natural residue in the N-terminal stalk region, (extracellular loop 1) ECL1, ECL2, and ECL3 regions of the receptor[21]. Mutagenesis was performed using the QuikChange site-directed mutagenesis kit from Stratagene (La Jolla, CA), with the products verified by direct DNA sequencing.
Cysteine trapping is a technique in which cysteine residues incorporated into distinct positions within a peptide ligand and within its receptor are allowed to form disulfide bonds when two free cysteines are in proximity to each other with necessary distance and geometry. As noted above, this was performed with secretin peptides incorporating cysteines in positions 2, 5, 6 and 7[20],[21], and with a series of SecR mutants incorporating cysteines in all extracellular domains (75 distinct constructs in a TM4 mutant non-dimerizing SecR background). COS-1 cells were grown to approximate 85% confluence in 24-well tissue culture plates, and transfected with cysteine mutant receptor constructs using the PEI method. Assays were started by washing the cells with DMEM containing 5% Fetal Clone II before being incubated with 200 μl radiolabeled cysteine-containing probes (approximately 100,000 cpm per well) for 1.5 h at room temperature. The assays were terminated by washing the cells with ice-cold PBS, pH 7.4, and mixing with 60 µl SDS Laemmli sample buffer not containing dithiothreitol (DTT). Lysates were run on 10% SDS-polyacrylamide gels. Gels were then dried, and bands of interest were visualized by autoradiography, and specific bands were identified, and intensities quantified using ImageJ. Sites having labeling above background were determined using one-way ANOVA with Dunnett’s post-test, with P < 0.001 considered to be significant. The apparent molecular weights of the receptor bands were determined by interpolation with the mobility of the appropriate ProSieve protein markers.

[1] = A292C, ECL2, n = 3-5, Cys5 significant (P < 0.0001)
[2] = A365C, ECL3, n = 3-5, Cys5 significant (P < 0.0001)
[3] = D364C, ECL3, n = 3-5, Cys5 significant (P < 0.0001)
[4] = F279C, ECL2, % of highest labeling within loop, n = 4 (Cys2), 5 (Cys5, Cys6), 3 (Cys7)
[5] = F279C, ECL2, % of highest-labeled residue across all constructs, n = 4 (Cys2), 5 (Cys5, Cys6), 3 (Cys7)
[6] = I288C, ECL2, n = 3-5, Cys5 and Cys7 significant (P < 0.0001)
[7] = L374C, ECL3, n = 3-5, Cys5, Cys6, Cys7 significant (P < 0.001)
[8] = W295C, ECL2, n = 3-5, Cys2, Cys5, Cys7 significant (P < 0.0001)
[9] = W296C, ECL2, n = 3-5, Cys6 significant (P = 0.0003)

Cys^5-[Tyr^10]secretin(1-27) (HSDGCFTSEYSRLREGARLQRLLQGLV; not fully specified; ends and bridges not checked; also: radioiodinated; UniProt P09683 28-54, looked up, variant T5C L10Y) [Cys^5-Sec, cysteine-containing secretin agonist probe, radioiodinated for cysteine trapping]
Intraloop labeling (A290C, ECL2, n = 3-5): 20.3±19.9 percentage | Overall labeling (A290C, ECL2, n = 3-5): 15.5±15.2 percentage | Intraloop labeling (A292C, ECL2, n = 3-5): 93.4±2.8 percentage | Overall labeling [1]: 88.5±4.0 percentage | Intraloop labeling (A365C, ECL3, n = 3-5): 90.4±5.8 percentage | Overall labeling [2]: 82.4±7.9 percentage | Intraloop labeling (D282C, ECL2, n = 3-5): < 1 percentage | Overall labeling (D282C, ECL2, n = 3-5): < 1 percentage | Intraloop labeling (D287C, ECL2, n = 3-5): < 1 percentage | Overall labeling (D287C, ECL2, n = 3-5): < 1 percentage | Intraloop labeling (D364C, ECL3, n = 3-5): 62.2±12.3 percentage | Overall labeling [3]: 54.2±7.8 percentage | Intraloop labeling (E281C, ECL2, n = 3-5): < 1 percentage | Overall labeling (E281C, ECL2, n = 3-5): < 1 percentage | Intraloop labeling (E363C, ECL3, n = 3-5): < 1 percentage | Overall labeling (E363C, ECL3, n = 3-5): < 1 percentage | Intraloop labeling (E367C, ECL3, n = 3-5): < 1 percentage | Overall labeling (E367C, ECL3, n = 3-5): < 1 percentage | Intraloop labeling (E373C, ECL3, n = 3-5): < 1 percentage | Overall labeling (E373C, ECL3, n = 3-5): < 1 percentage | Intraloop labeling [4]: < 1 percentage | Overall labeling [5]: < 1 percentage | Intraloop labeling (F371C, ECL3, n = 3-5): < 1 percentage | Overall labeling (F371C, ECL3, n = 3-5): < 1 percentage | Intraloop labeling (F372C, ECL3, n = 3-5): < 1 percentage | Overall labeling (F372C, ECL3, n = 3-5): < 1 percentage | Intraloop labeling (G284C, ECL2, n = 3-5): < 1 percentage | Overall labeling (G284C, ECL2, n = 3-5): < 1 percentage | Intraloop labeling (I288C, ECL2, n = 3-5): 71.1±10.8 percentage | Overall labeling [6]: 69.2±12.2 percentage | Intraloop labeling (I294C, ECL2, n = 3-5): < 1 percentage | Overall labeling (I294C, ECL2, n = 3-5): < 1 percentage | Intraloop labeling (I297C, ECL2, n = 3-5): < 1 percentage | Overall labeling (I297C, ECL2, n = 3-5): < 1 percentage | Intraloop labeling (I368C, ECL3, n = 3-5): < 1 percentage | Overall labeling (I368C, ECL3, n = 3-5): < 1 percentage | Intraloop labeling (L280C, ECL2, n = 3-5): < 1 percentage | Overall labeling (L280C, ECL2, n = 3-5): < 1 percentage | Intraloop labeling (L370C, ECL3, n = 3-5): < 1 percentage | Overall labeling (L370C, ECL3, n = 3-5): < 1 percentage | Intraloop labeling (L374C, ECL3, n = 3-5): 77.3±7.7 percentage | Overall labeling [7]: 69.8±7.5 percentage | Intraloop labeling (M366C, ECL3, n = 3-5): 59.9±11.0 percentage | Overall labeling (M366C, ECL3, n = 3-5, Cys5 significant (P < 0.0001)): 55.3±12.0 percentage | Intraloop labeling (N289C, ECL2, n = 3-5): < 1 percentage | Overall labeling (N289C, ECL2, n = 3-5): < 1 percentage | Intraloop labeling (N291C, ECL2, n = 3-5): < 1 percentage | Overall labeling (N291C, ECL2, n = 3-5): < 1 percentage | Intraloop labeling (P362C, ECL3, n = 3-5): 20.3±19.9 percentage | Overall labeling (P362C, ECL3, n = 3-5): 19.3±19.0 percentage | Intraloop labeling (Q369C, ECL3, n = 3-5): 21.6±13.4 percentage | Overall labeling (Q369C, ECL3, n = 3-5): 21.6±13.5 percentage | Intraloop labeling (S293C, ECL2, n = 3-5): < 1 percentage | Overall labeling (S293C, ECL2, n = 3-5): < 1 percentage | Intraloop labeling (S361C, ECL3, n = 3-5): < 1 percentage | Overall labeling (S361C, ECL3, n = 3-5): < 1 percentage | Intraloop labeling (V283C, ECL2, n = 3-5): < 1 percentage | Overall labeling (V283C, ECL2, n = 3-5): < 1 percentage | Intraloop labeling (W286C, ECL2, n = 3-5): < 1 percentage | Overall labeling (W286C, ECL2, n = 3-5): < 1 percentage | Intraloop labeling (W295C, ECL2, n = 3-5): 79.1±16.7 percentage | Overall labeling [8]: 78.3±17.3 percentage | Intraloop labeling (W296C, ECL2, n = 3-5): < 1 percentage | Overall labeling [9]: < 1 percentage | cysteine trapping in ECL3, in words (WT (earlier work) and non-dimerizing SecR): labeled ECL3 residues

Cys^2-[Tyr^10]secretin(1-27) (HCDGTFTSEYSRLREGARLQRLLQGLV; not fully specified; ends and bridges not checked; also: radioiodinated; UniProt P09683 28-54, looked up, variant S2C L10Y) [Cys^2-Sec, cysteine-containing secretin agonist probe, radioiodinated for cysteine trapping]
Intraloop labeling (A290C, ECL2, n = 3-5): < 1 percentage | Overall labeling (A290C, ECL2, n = 3-5): < 1 percentage | Intraloop labeling (A292C, ECL2, n = 3-5): < 1 percentage | Overall labeling [1]: < 1 percentage | Intraloop labeling (A365C, ECL3, n = 3-5): 22.5±19.5 percentage | Overall labeling [2]: 21.7±19.6 percentage | Intraloop labeling (D282C, ECL2, n = 3-5): < 1 percentage | Overall labeling (D282C, ECL2, n = 3-5): < 1 percentage | Intraloop labeling (D287C, ECL2, n = 3-5): < 1 percentage | Overall labeling (D287C, ECL2, n = 3-5): < 1 percentage | Intraloop labeling (D364C, ECL3, n = 3-5): 22.1±19.0 percentage | Overall labeling [3]: 21.3±19.1 percentage | Intraloop labeling (E281C, ECL2, n = 3-5): < 1 percentage | Overall labeling (E281C, ECL2, n = 3-5): < 1 percentage | Overall labeling (E363C, ECL3, n = 3-5): < 1 percentage | Intraloop labeling (E367C, ECL3, n = 3-5): < 1 percentage | Overall labeling (E367C, ECL3, n = 3-5): < 1 percentage | Intraloop labeling (E373C, ECL3, n = 3-5): 37.0±22.4 percentage | Overall labeling (E373C, ECL3, n = 3-5): 27.2±18.7 percentage | Intraloop labeling [4]: < 1 percentage | Overall labeling [5]: < 1 percentage | Intraloop labeling (F358C, ECL3, n = 3-5): 36.3±17.6 percentage | Overall labeling (F358C, ECL3, n = 3-5): 29.0±11.6 percentage | Intraloop labeling (F360C, ECL3, n = 3-5): 22.9±8.3 percentage | Overall labeling (F360C, ECL3, n = 3-5): 19.4±6.5 percentage | Intraloop labeling (F371C, ECL3, n = 3-5): 14.7±12.5 percentage | Overall labeling (F371C, ECL3, n = 3-5): 14.5±12.5 percentage | Intraloop labeling (F372C, ECL3, n = 3-5): 33.7±20.5 percentage | Overall labeling (F372C, ECL3, n = 3-5): 23.5±15.3 percentage | Intraloop labeling (G284C, ECL2, n = 3-5): < 1 percentage | Overall labeling (G284C, ECL2, n = 3-5): < 1 percentage | Intraloop labeling (I288C, ECL2, n = 3-5): < 1 percentage | Overall labeling [6]: < 1 percentage | Intraloop labeling (I294C, ECL2, n = 3-5): < 1 percentage | Overall labeling (I294C, ECL2, n = 3-5): < 1 percentage | Intraloop labeling (I368C, ECL3, n = 3-5): < 1 percentage | Overall labeling (I368C, ECL3, n = 3-5): < 1 percentage | Intraloop labeling (L280C, ECL2, n = 3-5): < 1 percentage | Overall labeling (L280C, ECL2, n = 3-5): < 1 percentage | Intraloop labeling (L370C, ECL3, n = 3-5): 16.6±15.3 percentage | Intraloop labeling (L374C, ECL3, n = 3-5): 40.3±24.4 percentage | Overall labeling [7]: 29.1±19.6 percentage | Intraloop labeling (N289C, ECL2, n = 3-5): < 1 percentage | Overall labeling (N289C, ECL2, n = 3-5): < 1 percentage | Intraloop labeling (N291C, ECL2, n = 3-5): < 1 percentage | Overall labeling (N291C, ECL2, n = 3-5): < 1 percentage | Intraloop labeling (Q369C, ECL3, n = 3-5): < 1 percentage | Overall labeling (Q369C, ECL3, n = 3-5): < 1 percentage | Intraloop labeling (S293C, ECL2, n = 3-5): < 1 percentage | Overall labeling (S293C, ECL2, n = 3-5): < 1 percentage | Intraloop labeling (S361C, ECL3, n = 3-5): < 1 percentage | Overall labeling (S361C, ECL3, n = 3-5): < 1 percentage | Intraloop labeling (V283C, ECL2, n = 3-5): < 1 percentage | Overall labeling (V283C, ECL2, n = 3-5): < 1 percentage | Intraloop labeling (W286C, ECL2, n = 3-5): < 1 percentage | Overall labeling (W286C, ECL2, n = 3-5): < 1 percentage | Intraloop labeling (W295C, ECL2, n = 3-5): 100±0 percentage | Overall labeling [8]: 93.0±7.0 percentage | Intraloop labeling (W296C, ECL2, n = 3-5): < 1 percentage | Overall labeling [9]: < 1 percentage
